As a reminder, the pIC50 is −log10 of the IC50, conventionally taken in molar units. Broadly, the % Inhibition is the drop in the measured response relative to a control, in per cent. The inhibition is the change of the read-out against control, counted positive when it falls. Lower therefore signals a weak effect.

We go through 20 compounds from US6727237B2, “Inhibitors of bacterial NAD synthetase” (priority 1998, dated 2004).

pIC50: −log10 of the molar value. ≈ marks a conversion by molar mass, not a printed value. Where “and” joins values, the source holds several entries; their conditions need not be identical. Equal entries are not always repeated.

Experiment [1] concerns Staphylococcus epidermitis. Kind of experiment: Bacterial growth inhibition screen in LB media (absorbance 595 nm), percent inhibition. To be noted: for % Inhibition: S. epidermitis.
For experiment [2], the system named is Staphylococcus epidermitis. The experiment is described as follows: Dose response of bacterial growth inhibition, MIC85. To be noted: for MIC: Staphylococcus, read-out: MIC85; for MIC85: minimum inhibitory concentration to achieve 85% inhibition, S. epidermitis.
In experiment [3] the target is T1, bacterial NAD synthetase enzyme (Bacillus subtilis, UniProt P08164).
T1 sequence (P08164 2-272 limits assumed): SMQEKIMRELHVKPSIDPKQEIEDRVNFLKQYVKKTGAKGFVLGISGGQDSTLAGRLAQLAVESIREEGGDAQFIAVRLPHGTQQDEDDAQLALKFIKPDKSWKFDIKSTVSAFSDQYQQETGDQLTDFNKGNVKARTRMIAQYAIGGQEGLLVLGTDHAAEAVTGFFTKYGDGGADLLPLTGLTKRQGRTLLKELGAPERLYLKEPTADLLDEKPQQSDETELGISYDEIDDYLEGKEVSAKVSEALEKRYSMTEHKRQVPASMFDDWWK
Kind of experiment: biochemical. To be noted: for % Inhibition: compound at 0.1 mM (Table 314). The class given is biochemical.

For `COC(=O)c1ccc2c(ccn2CCCCCCCCC[n+]2cc(C(=O)OC)cc3ccccc32)c1` [Compound 174], in experiment [1] (Staphylococcus, read-out: % Inhibition, S. epidermitis, concentration screened 10 uM), the inhibition of growth at 10 µM was 98.7%. In experiment [2], the MIC amounted to 10 µM. Further, in experiment [3], the pIC50 is 4.40.
As to `Fc1cc(F)c2[nH]c(CCCCC[n+]3ccc4ccccc4c3)cc2c1` [Compound 518], the “% Inhibition” value in experiment [1] (concentration screened 100 uM) is recorded as 100.00%; in experiment [3] it was 30.39%. For the same compound, the MIC85 in experiment [2] was found to be 30 µM.
For `COC(=O)c1cc2cc(OCc3ccccc3)ccc2n1CCCCC[n+]1ccccc1` [Compound 228], in experiment [1] (Staphylococcus, read-out: % Inhibition, S. epidermitis, concentration screened 100 uM), the inhibition of growth at 100 µM was 96.8%. In experiment [2], the MIC was 10 µM. In addition, in experiment [3], the negative logarithm of the IC50 (pIC50) was 4.22 and testing at 100 µM gave an inhibition of 95.1%.
As to `COC(=O)c1ccc[n+](CCCCCCCn2ccc3cc([N+](=O)[O-])ccc32)c1` [Compound 12], the “% Inhibition” value in experiment [1] (concentration screened 10 uM) is 99.22% and 95.73%; in experiment [3], 62.22%. Moreover, the MIC85 in experiment [2] was determined as 30 µM.
As for `COc1ccc2[nH]c(CCCCCC[n+]3ccccc3)cc2c1` [Compound 375], the “% Inhibition” value was found to be 100.00% in experiment [1] (concentration screened 100 uM) and 60.14% in experiment [3]. This compound returned an MIC85 in experiment [2] of 30 µM.
Take `COc1ccc2c(ccn2CCCCCOC(=O)c2cc3ccccc3[n+](C)c2)c1` [Compound 821]: in experiment [1] (concentration screened 10 uM), the “% Inhibition” value is given as 95.02%. In experiment [2], this compound displayed an MIC85 of 30 µM.
As to `CN(C)c1ccc(CC(=O)OCCCCCCCCn2ccc3cc([N+](=O)[O-])ccc32)cc1` [Compound 852], the “% Inhibition” value in experiment [1] (concentration screened 10 uM) came out at 98.58%. In experiment [2], this compound registered an MIC85 of 30 µM (≈ 13.5 µg/mL).
Taken in the same sequence, the figures for `CN(C)c1ccc(CC(=O)OCCCCCCCn2ccc3cc([N+](=O)[O-])ccc32)cc1` [Compound 851] were 98.90% and 30 µM (≈ 13.1 µg/mL).
Taken in the same sequence, the figures for `COc1ccc2c(ccn2CCCCCCCOC(=O)c2cc3ccccc3[n+](C)c2)c1` [Compound 823] were 97.03% and 10 µM.
Taken in the same sequence, the figures for `O=C(OCCCCCCCn1ccc2cc([N+](=O)[O-])ccc21)c1cnc2ccccc2c1` [Compound 833] were 98.00% and 10 µM (≈ 4.31 µg/mL).
On to `O=C(OCCCCCCCCCn1ccc2cc([N+](=O)[O-])ccc21)c1cnc2ccccc2c1` [Compound 835], for which the “% Inhibition” value in experiment [1] (concentration screened 10 uM) is 99.03%. Also, in experiment [2], the MIC85 is 3.7 µM (≈ 1.7 µg/mL).
Taken in the same sequence, the figures for `O=C(OCCCCCCCCn1ccc2cc([N+](=O)[O-])ccc21)c1cnc2ccccc2c1` [Compound 834] were 98.13% and 3.7 µM (≈ 1.65 µg/mL).
Taken in the same sequence, the figures for `CN(C)c1cccc(C(=O)OCCCCCCCCn2ccc3cc([N+](=O)[O-])ccc32)c1` [Compound 840] were 98.77% and 10 µM (≈ 4.38 µg/mL).
In the same order, the values of `C[N+](C)(C)c1cccc(C(=O)OCCCCCCCn2ccc3cc(OCc4ccccc4)ccc32)c1` [Compound 808] are 98.06% and 30 µM.
With `C[n+]1cc(C(=O)OCCCCCn2ccc3cc(OCc4ccccc4)ccc32)cc2ccccc21` [Compound 826], the “% Inhibition” value in experiment [1] (concentration screened 10 uM) came out at 92.57%. This compound also yielded an MIC85 in experiment [2] of 3.7 µM.
Taken in the same sequence, the figures for `COc1ccc2c(ccn2CCCCCCCCOC(=O)c2cc3ccccc3[n+](C)c2)c1` [Compound 824] were 97.67% and 3.7 µM.
Taken in the same sequence, the figures for `C[N+](C)(C)c1cccc(C(=O)OCCCCCCn2ccc3cc(OCc4ccccc4)ccc32)c1` [Compound 807] were 97.22% and 10 µM.
In the same order, the values of `COc1ccc2[nH]c(CCC[n+]3ccccc3)cc2c1` [Compound 372] are 67.34% and 30 µM.
On to `CN(C)c1cccc(C(=O)OCCCCCCCCCn2ccc3cc([N+](=O)[O-])ccc32)c1` [Compound 841], for which the “% Inhibition” value in experiment [1] (concentration screened 10 uM) amounted to 98.90%. For the same compound, the MIC85 in experiment [2] was found to be 10 µM (≈ 4.52 µg/mL).
As for `COC(=O)C=Cc1cn(CCCCCCC[n+]2ccccc2)c2ccccc12` [Compound 261], in experiment [1] (concentration screened 10 uM), the “% Inhibition” value was determined as 92.51%. The MIC85 in experiment [2] amounted to 30 µM.
